Patent US20120172451A1, “CLEANING LIQUID” (priority 2010, published 2012)

Experiment: pH measurement
Assay type: physicochemical
Text: All measurements of pH and temperature mentioned in this specification were taken on a Hanna Instruments Ltd. device, with the model no. HI98127 (a waterproof pH and ° C./° F. probe). The measurements of pH and temperature could be taken on other generally available pH and temperature probes.

For O=P(O)(O)O [phosphoric acid], the pH (1 mol/L at 20° C.) was “around 1.08”.

O=C(O)CC(O)(CC(=O)O)C(=O)O [citric acid] showed a pH (50 g/l at 20° C.) of 1.8.
